In this data set the test system is NASH model mice (MC4R-KO mice fed a high-fat diet). Description: Body weight and liver weight of NASH model mice. The format is in vivo, mouse. Particulars: 5 mg/kg tail vein injection twice a week for four weeks, t-test. The source says: Melanocortin-4 receptor knockout mice (hereinafter also referred to as “MC4R-KO mice,” genetic background: C57BL/6J) were provided by Dr. Joel K Elmquist of University of Texas, Medical Center.
Subsequently, NASH was induced in the mice by feeding a high-fat diet to the MC4R-KO mice, as detailed in the below reference. […] Later, the diet was switched from the normal diet to a high-fat diet (HFD) and the high-fat diet was fed for 20 weeks. Thereby, NASH was developed in the mice. • Itoh M, Suganami T, Nakagawa N, et al. Melanocortin 4 receptor-deficient mice as a novel mouse model of nonalcoholic steatohepatitis. Am J Pathol 2011; 179: 2454-63.
Here, CE-2 (manufactured by CLEA Japan, Inc.) was used as the normal diet, and Western Diet (manufactured by EPS EKISHIN Co., Ltd., containing 0.21% of cholesterol+41% kcal of milk fat) was used as the high-fat diet.
Experiments were carried out by dividing the mice into two groups of an HMGB1 peptide administration group (HMGB1 administration group) and a control group (normal saline; NS administration; CTRL administration group). […]
The mice were euthanized twenty weeks after initiating the high-fat diet, and arterial blood was collected from the heart of the mice. […] In all of the following statistical analyses, significance was calculated by a t-test.

Where no end group is shown, it is not given here.

For the sequence “MGKGDPKKPRGKMSSYAFFVQTCREEHKKKHPDASVNFSEFSKK [HMGB1 peptide]”, under “from initiating administration until completion of breeding, vs control group”, the “change of the body weight” value is “significant differences were not observed”. For the same sequence, the body weight entry (twenty weeks after initiating high-fat diet, vs control group (normal saline)) is “significant differences were not observed”.

For the origin of these results see patent US20240299496A1, “DRUG FOR TREATING FATTY LIVER AND NONALCOHOLIC STEATOHEPATITIS” (Osaka University, priority 2021, published 2024).
